# Data as given in patent publication US20260053861A1, “CELL COMPOSITIONS AND METHODS OF USING THE SAME” (THE REGENTS OF THE UNIVERSITY OF CALIFORNIA, priority 2022, published 2026).
# Key:
# [1] = test system: patients suffering from neuropathic pain; conditions: cited from earlier work
# hPSC-SCs [2] = test system: hPSC-SCs
# NF-kB p65 = NF-kB p65 staining, nuclear localization in SCs exposed to high glucose; assay type: cell-based, human
# hPSC-SCs [3] = assay: Metabolite measurements by biochemical/colorimetric assays (sorbitol, fructose, lactate, glucose, pyruvate); assay type: cell-based, human
# hPSC-SCs [4] = assay: Untargeted primary metabolomics of glucose and BP treated SCs; assay type: cell-based, human
# [5] = Blood glucose levels in STZ-treated mice; conditions: BP in chow
# [6] = test system: SOX10+ cells in 2D or 3D NC cultures; assay: Maintenance of SOX10 expression in cultured NC precursors with signaling modulators; assay type: cell-based, human; conditions: CHIR99021 exposure together with FGF2, 3D aggregates
# Text: Initial hPSC-based NC differentiation protocols relied on the delamination of putative NC cells from neuroepithelial lineages combined with the prospective isolation of p75+ and/or HNK1+ NC precursors (Bajpai et al., 2010; Lee et al., 2007). While those protocols yield various NC-derived lineages, the levels of SOX10 expression are generally low. In contrast, more directed NC induction protocols based on timed exposure to activators of WNT signaling show robust induction of SOX10 in the majority of cells by day 11 of differentiation (Barber et al., 2019; […] et al., 2016; Menendez et al., 2011; Mica et al., 2013; Tchieu et al., 2017). Upon further culture, those hPSC-derived NC cells can be directed into SOX10+ melanocytes (Mica et al., 2013) but also give rise to SOX10-mesenchymal and neuronal precursors ([…] et al., 2016; Lee et al., 2007; Mica et al., 2013; Tchieu et al., 2017). Since SOX10 is a key marker in the SC lineage (Finzsch et al., 2010), we first screened for conditions that maintained its expression in cultured NC precursors. We determined the percentage of SOX10+ cells in 2D or 3D NC cultures in the presence of modulators of EGF, FGF, WNT, Notch, TGFβ, BMP and endothelin 3 signaling.
Molecule,benefit in patients with neuropathic pain [1],"normalized (transformed) viability z-score, number of viable cells (hPSC-SCs [2]; 30 mM glucose, compounds at 1 μM, 72 hours, DAPI negative RFP positive cells)",highest non-toxic dose (hPSC-SCs [2]; human),"rescue of viability of high glucose treated SC cultures, dose response (hPSC-SCs [2]; various concentrations, high glucose)",NF-kB p65 localization to the nucleus in SCs exposed to high glucose (NF-kB p65),cellular level of fructose increased by high glucose (hPSC-SCs [3]),"intracellular glucose and sucrose levels (hPSC-SCs [3]; SCs, high glucose)",sorbitol accumulation in SCs (hPSC-SCs [3]; high glucose),cellular lactate level (hPSC-SCs [4]; SCs),"levels of TCA cycle metabolites succinate, fumarate, citrate, α-ketoglutarate and malate (hPSC-SCs [4]; SCs)",cellular pyruvate increased by high glucose (hPSC-SCs [4]; high glucose),concentration of citrate reduced by high glucose (hPSC-SCs [4]; high glucose),urea concentration and transporter SLC14A2 mRNA level (hPSC-SCs [4]; high glucose),blood glucose levels [5],SOX10 expression in cultured NC precursors [6]
"CC(NC(C)(C)C)C(=O)c1cccc(Cl)c1 (stereo not shown) [BP, Bupropion]",some benefit,top hit compound,0.7 µM,dose-dependent effect on rescuing the viability,counteracted by BP treatment,countered this effect,decrease in intracellular glucose and sucrose levels,reduced sorbitol accumulation in SCs in a dose-dependent manner,reduced after BP treatment,increase in the detected levels,lowered by BP treatment,reversed by BP treatment,decreased in the presence of BP,does not affect glucose levels,–
"Cc1c[nH]c(-c2cnc(NCCNc3ccc(C#N)cn3)nc2-c2ccc(Cl)cc2Cl)n1 [CHIR99021, reference compound]",–,–,–,–,–,–,–,–,–,–,–,–,–,–,maintenance of SOX10 expression in 3D aggregates
FGF2,–,–,–,–,–,–,–,–,–,–,–,–,–,–,maintenance of SOX10 expression in 3D aggregates
